Legend:
[1] = tested on: Rattus norvegicus; test: Effect on rotational behavior in rat after i.p. administration of 1 ug/kg; format: functional
[2] = tested on: Rattus norvegicus; test: Effect on rotational behavior in rat after i.p. administration of 0.1 ug/kg; format: functional

Compound | Increase [1] [%] | Increase [2] [%]
NC(=O)[C@H]1CS[C@@H]2C[C@@](Cc3ccccc3)(NC(=O)[C@@H]3CCCN3)C(=O)N12 | 30 | 
CCCC[C@@]1(NC(=O)[C@@H]2CCCN2)C[C@H]2SC[C@H](C(N)=O)N2C1=O |  | 56
NC(=O)[C@H]1CS[C@@H]2C[C@@H](NC(=O)[C@@H]3CCCN3)C(=O)N12 |  | 23
CC(C)C[C@@]1(NC(=O)[C@@H]2CCCN2)C[C@H]2SC[C@H](C(N)=O)N2C1=O | 44 | 
